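Values below derive from 48-hour exposures of cells grown in 96-well plates, with endpoints linearly interpolated between the two concentrations bracketing the appropriate inhibition level. GI50 marks 50% less growth.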 Activity calls are given as the source filed them. Cut-off read from the data, not from the text of the source: active = GI50 up to about 1.1 µM and inactive = higher.
Columns and labels:
Assay in all cases: NCI-60 cell line screen, 48 h
[1] = system: 786-0
[2] = system: A498
[3] = system: A549
[4] = system: ACHN
[5] = system: BT-549
[6] = system: CAKI-1
[7] = system: CCRF-CEM
[8] = system: COLO 205
[9] = system: DU-145
[10] = system: EKVX
[11] = system: HCC 2998
[12] = system: HCT-116
[13] = system: HCT-15
[14] = system: HL-60
[15] = system: HOP-62
[16] = system: HOP-92
[17] = system: HT-29
[18] = system: Hs-578T
[19] = system: IGROV-1
[20] = system: K562
[21] = system: KM12
[22] = system: LOX IMVI
[23] = system: M14
[24] = system: MCF7
[25] = system: MDA-MB-231
[26] = system: MDA-MB-435
[27] = system: MDA-N
[28] = system: MOLT-4
[29] = system: Malme-3M
[30] = system: NCI-H226
[31] = system: NCI-H23
[32] = system: NCI-H460
[33] = system: NCI-H522
[34] = system: NCI/ADR-RES
[35] = system: OVCAR-3
[36] = system: OVCAR-4
[37] = system: OVCAR-5
[38] = system: OVCAR-8
[39] = system: PC-3
[40] = system: RPMI-8226
[41] = system: RXF 393
[42] = system: SF-268
[43] = system: SF-295
[44] = system: SF-539
[45] = system: SK-MEL-28
[46] = system: SK-MEL-2
[47] = system: SK-MEL-5
[48] = system: SK-OV-3
[49] = system: SN12C
[50] = system: SNB-19
[51] = system: SNB-75
[52] = system: SR
[53] = system: SW-620
[54] = system: T47D
[55] = system: TK-10
[56] = system: U-251
[57] = system: UACC-257
[58] = system: UACC-62
[59] = system: UO-31
[60] = system: KM-20L2

## C=CC/C(C(=O)OC)=C(/C(=O)OC)N(CCC)CCC
[1]
  GI50: > 100 µM (inactive)
[2]
  GI50: > 100 µM (inactive)
[3]
  GI50: > 100 µM (inactive)
[4]
  GI50: 86.9 µM (inactive)
[5]
  GI50: > 100 µM (inactive)
[6]
  GI50: > 100 µM (inactive)
[7]
  GI50: 36.1 µM (inactive)
[8]
  GI50: 99.5 µM (inactive)
[9]
  GI50: > 100 µM (inactive)
[10]
  GI50: 74.3 µM (inactive)
[11]
  GI50: > 100 µM (inactive)
[12]
  GI50: 57.9 µM (inactive)
[13]
  GI50: > 100 µM
[14]
  GI50: 23 µM (inactive)
[15]
  GI50: > 100 µM (inactive)
[16]
  GI50: 64 µM (inactive)
[17]
  GI50: > 100 µM (inactive)
[18]
  GI50: > 100 µM (inactive)
[19]
  GI50: > 100 µM (inactive)
[20]
  GI50: 35.8 µM (inactive)
[21]
  GI50: > 100 µM (inactive)
[22]
  GI50: > 100 µM (inactive)
[23]
  GI50: > 100 µM (inactive)
[24]
  GI50: 63.2 µM (inactive)
[25]
  GI50: > 100 µM (inactive)
[26]
  GI50: > 100 µM (inactive)
[27]
  GI50: > 100 µM (inactive)
[28]
  GI50: 61.8 µM (inactive)
[29]
  GI50: > 100 µM (inactive)
[30]
  GI50: > 100 µM (inactive)
[31]
  GI50: > 100 µM (inactive)
[32]
  GI50: > 100 µM (inactive)
[33]
  GI50: 83.8 µM (inactive)
[34]
  GI50: > 100 µM (inactive)
[35]
  GI50: 36.1 µM (inactive)
[36]
  GI50: > 100 µM (inactive)
[37]
  GI50: > 100 µM (inactive)
[38]
  GI50: > 100 µM (inactive)
[39]
  GI50: > 100 µM (inactive)
[40]
  GI50: 41.9 µM (inactive)
[41]
  GI50: > 100 µM (inactive)
[42]
  GI50: > 100 µM (inactive)
[43]
  GI50: > 100 µM (inactive)
[44]
  GI50: > 100 µM (inactive)
[45]
  GI50: > 100 µM (inactive)
[46]
  GI50: > 100 µM (inactive)
[47]
  GI50: > 100 µM (inactive)
[48]
  GI50: > 100 µM (inactive)
[49]
  GI50: > 100 µM (inactive)
[50]
  GI50: > 100 µM (inactive)
[51]
  GI50: > 100 µM (inactive)
[52]
  GI50: 16.4 µM (inactive)
[53]
  GI50: 76.7 µM (inactive)
[54]
  GI50: > 100 µM (inactive)
[55]
  GI50: > 100 µM (inactive)
[56]
  GI50: 59.4 µM (inactive)
[57]
  GI50: > 100 µM (inactive)
[58]
  GI50: > 100 µM (inactive)
[59]
  GI50: 94.8 µM (inactive)

## CC(=O)c1c(C)cc2cccc(OC3OC(CO)C(O)C(O)C3O)c2c1O.CC1OC(O)C(O)C(O)C1O (stereo not given)
[1]
  GI50: > 100 µM (inactive)
[2]
  GI50: > 100 µM (inactive)
[3]
  GI50: > 100 µM (inactive)
[4]
  GI50: > 100 µM (inactive)
[5]
  GI50: > 100 µM (inactive)
[6]
  GI50: > 100 µM (inactive)
[7]
  GI50: > 100 µM (inactive)
[8]
  GI50: > 100 µM (inactive)
[9]
  GI50: > 100 µM (inactive)
[10]
  GI50: > 100 µM (inactive)
[11]
  GI50: > 100 µM (inactive)
[12]
  GI50: > 100 µM (inactive)
[13]
  GI50: > 100 µM
[14]
  GI50: > 100 µM (inactive)
[15]
  GI50: > 100 µM (inactive)
[16]
  GI50: > 100 µM (inactive)
[17]
  GI50: > 100 µM (inactive)
[18]
  GI50: > 100 µM (inactive)
[19]
  GI50: > 100 µM (inactive)
[20]
  GI50: > 100 µM (inactive)
[21]
  GI50: > 100 µM (inactive)
[22]
  GI50: > 100 µM (inactive)
[23]
  GI50: > 100 µM (inactive)
[24]
  GI50: > 100 µM (inactive)
[25]
  GI50: > 100 µM (inactive)
[26]
  GI50: > 100 µM (inactive)
[27]
  GI50: > 100 µM (inactive)
[28]
  GI50: > 100 µM (inactive)
[29]
  GI50: > 100 µM (inactive)
[30]
  GI50: > 100 µM (inactive)
[31]
  GI50: > 100 µM (inactive)
[32]
  GI50: > 100 µM (inactive)
[33]
  GI50: > 100 µM (inactive)
[34]
  GI50: > 100 µM (inactive)
[35]
  GI50: > 100 µM (inactive)
[36]
  GI50: > 100 µM (inactive)
[37]
  GI50: > 100 µM (inactive)
[38]
  GI50: > 100 µM (inactive)
[39]
  GI50: > 100 µM (inactive)
[40]
  GI50: > 100 µM (inactive)
[41]
  GI50: > 100 µM (inactive)
[42]
  GI50: > 100 µM (inactive)
[43]
  GI50: > 100 µM (inactive)
[44]
  GI50: > 100 µM (inactive)
[45]
  GI50: > 100 µM (inactive)
[46]
  GI50: > 100 µM (inactive)
[47]
  GI50: > 100 µM (inactive)
[48]
  GI50: > 100 µM (inactive)
[49]
  GI50: > 100 µM (inactive)
[50]
  GI50: > 100 µM (inactive)
[51]
  GI50: > 100 µM (inactive)
[52]
  GI50: > 100 µM (inactive)
[53]
  GI50: > 100 µM (inactive)
[54]
  GI50: > 100 µM (inactive)
[55]
  GI50: > 100 µM (inactive)
[56]
  GI50: > 100 µM (inactive)
[57]
  GI50: > 100 µM (inactive)
[58]
  GI50: > 100 µM (inactive)

## COc1ccc(/C=C\c2cc(OC)c(OC)c(OC)c2)cc1O
[5]
  GI50: 23.9 µM (inactive)
[8]
  GI50: 2.9 µM (inactive)
[10]
  GI50: 14.7 µM (inactive)
[17]
  GI50: 3.84 µM (inactive)
[19]
  GI50: < 0.02 µM (active)
[60]
  GI50: 2.01 µM (inactive)
[37]
  GI50: 5.43 µM (inactive)
[55]
  GI50: 56.9 µM (inactive)
